We go through three compounds from ChEMBL document CHEMBL3739348, “Novel pyrrole derivatives as selective CHK1 inhibitors: design, regioselective synthesis and molecular modeling” (Medchemcomm, 2015).

Experiment [1] concerns the target Tyrosine-protein kinase Lck (Homo sapiens) (UniProt P06239). The experiment in a line: Inhibition of LCK (unknown origin) at 30 uM by microfluidic assay relative to control.
Experiment [2] has as its target Serine/threonine-protein kinase Chk2 (Homo sapiens) (UniProt O96017). The experiment in a line: Inhibition of CHK2 (unknown origin) at 30 uM by microfluidic assay relative to control.
Experiment [3] deals with Insulin receptor (Homo sapiens) (UniProt P06213). Put plainly: Inhibition of InsR (unknown origin) at 30 uM by microfluidic assay relative to control.
Insulin receptor (Homo sapiens), sequence (P06213 28-758 limits assumed): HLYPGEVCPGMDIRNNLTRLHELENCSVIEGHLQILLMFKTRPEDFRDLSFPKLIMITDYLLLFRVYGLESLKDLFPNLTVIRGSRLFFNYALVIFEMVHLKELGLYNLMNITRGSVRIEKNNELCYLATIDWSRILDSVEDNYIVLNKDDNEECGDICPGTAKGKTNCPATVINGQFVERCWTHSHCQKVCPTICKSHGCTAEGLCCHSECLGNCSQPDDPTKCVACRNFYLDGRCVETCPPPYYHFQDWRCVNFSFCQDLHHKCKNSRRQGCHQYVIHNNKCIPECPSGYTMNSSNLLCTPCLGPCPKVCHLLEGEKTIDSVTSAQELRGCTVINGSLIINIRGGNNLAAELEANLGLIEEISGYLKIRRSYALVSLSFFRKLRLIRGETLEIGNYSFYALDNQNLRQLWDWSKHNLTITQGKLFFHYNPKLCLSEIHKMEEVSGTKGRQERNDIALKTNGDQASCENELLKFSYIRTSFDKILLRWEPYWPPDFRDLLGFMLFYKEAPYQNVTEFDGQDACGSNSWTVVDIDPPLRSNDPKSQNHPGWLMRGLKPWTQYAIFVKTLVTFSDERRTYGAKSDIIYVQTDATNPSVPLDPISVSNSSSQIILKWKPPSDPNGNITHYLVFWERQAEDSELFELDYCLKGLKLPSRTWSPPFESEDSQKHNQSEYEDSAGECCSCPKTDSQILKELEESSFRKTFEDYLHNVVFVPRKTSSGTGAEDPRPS
Insulin receptor (Homo sapiens), sequence (P06213 763-1382 limits assumed): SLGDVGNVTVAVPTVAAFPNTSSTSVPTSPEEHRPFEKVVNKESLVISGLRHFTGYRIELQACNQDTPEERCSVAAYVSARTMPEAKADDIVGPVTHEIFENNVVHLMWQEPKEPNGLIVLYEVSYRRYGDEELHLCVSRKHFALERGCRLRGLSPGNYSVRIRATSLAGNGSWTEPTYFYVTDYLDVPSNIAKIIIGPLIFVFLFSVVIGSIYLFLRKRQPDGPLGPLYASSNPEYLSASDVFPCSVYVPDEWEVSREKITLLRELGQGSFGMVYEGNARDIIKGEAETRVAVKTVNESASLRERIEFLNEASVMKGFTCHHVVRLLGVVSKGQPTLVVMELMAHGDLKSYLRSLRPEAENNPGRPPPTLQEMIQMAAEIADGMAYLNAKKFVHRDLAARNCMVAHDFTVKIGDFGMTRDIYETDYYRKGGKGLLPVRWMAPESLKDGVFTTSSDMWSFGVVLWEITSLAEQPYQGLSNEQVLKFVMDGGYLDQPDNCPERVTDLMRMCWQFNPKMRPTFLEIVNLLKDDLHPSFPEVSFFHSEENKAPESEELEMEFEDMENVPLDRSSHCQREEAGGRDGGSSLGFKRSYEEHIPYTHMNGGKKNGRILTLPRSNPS
Experiment [4] has as its target Glycogen synthase kinase-3 (Homo sapiens) (UniProt P49840+P49841). The experiment in a line: Inhibition of GSK3 (unknown origin) at 30 uM by microfluidic assay relative to control. Format: protein assay.
The target in experiment [5] is Proto-oncogene tyrosine-protein kinase Src (Homo sapiens) (UniProt P12931). Put plainly: Inhibition of SRC (unknown origin) at 30 uM by microfluidic assay relative to control.
Experiment [6] has as its target Casein kinase I isoform delta (Homo sapiens) (UniProt P48730). The experiment in a line: Inhibition of CK1d (unknown origin) at 30 uM by microfluidic assay relative to control.
In experiment [7] the target is T1, Serine/threonine-protein kinase Chk1 (Homo sapiens) (UniProt O14757).
T1 sequence (whole entry): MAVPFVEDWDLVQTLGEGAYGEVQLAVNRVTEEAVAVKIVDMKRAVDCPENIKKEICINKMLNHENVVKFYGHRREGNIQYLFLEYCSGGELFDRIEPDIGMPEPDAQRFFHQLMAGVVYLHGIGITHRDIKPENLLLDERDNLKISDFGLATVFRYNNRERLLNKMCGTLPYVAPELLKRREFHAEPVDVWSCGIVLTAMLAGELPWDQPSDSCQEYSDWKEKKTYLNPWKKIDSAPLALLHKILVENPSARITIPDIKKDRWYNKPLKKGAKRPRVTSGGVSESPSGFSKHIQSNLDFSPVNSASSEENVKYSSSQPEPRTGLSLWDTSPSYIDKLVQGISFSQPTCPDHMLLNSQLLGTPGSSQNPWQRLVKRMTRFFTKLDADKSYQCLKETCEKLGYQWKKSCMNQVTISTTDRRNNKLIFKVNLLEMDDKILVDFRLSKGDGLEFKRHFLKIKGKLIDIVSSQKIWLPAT
Put plainly: Inhibition of CHK1 (unknown origin) at 30 uM by microfluidic assay relative to control.

Experiment [8] concerns the target RAC-beta serine/threonine-protein kinase (Homo sapiens) (UniProt P31751). Put plainly: Inhibition of AKT2 (unknown origin) at 30 uM by microfluidic assay relative to control.
Experiment [9] has as its target MAP kinase-activated protein kinase 2 (Homo sapiens) (UniProt P49137). The experiment in a line: Inhibition of MK2 (unknown origin) at 30 uM by microfluidic assay relative to control.
Experiment [10] has as its target Vascular endothelial growth factor receptor 2 (Homo sapiens, UniProt P35968). The experiment in a line: Inhibition of VEGFR-2 (unknown origin) at 30 uM by microfluidic assay relative to control.
The target in experiment [11] is Tyrosine-protein kinase Fyn (Homo sapiens) (UniProt P06241). Put plainly: Inhibition of FYN (unknown origin) at 30 uM by microfluidic assay relative to control.
Tyrosine-protein kinase Fyn (Homo sapiens), sequence (P06241 2-537 limits assumed): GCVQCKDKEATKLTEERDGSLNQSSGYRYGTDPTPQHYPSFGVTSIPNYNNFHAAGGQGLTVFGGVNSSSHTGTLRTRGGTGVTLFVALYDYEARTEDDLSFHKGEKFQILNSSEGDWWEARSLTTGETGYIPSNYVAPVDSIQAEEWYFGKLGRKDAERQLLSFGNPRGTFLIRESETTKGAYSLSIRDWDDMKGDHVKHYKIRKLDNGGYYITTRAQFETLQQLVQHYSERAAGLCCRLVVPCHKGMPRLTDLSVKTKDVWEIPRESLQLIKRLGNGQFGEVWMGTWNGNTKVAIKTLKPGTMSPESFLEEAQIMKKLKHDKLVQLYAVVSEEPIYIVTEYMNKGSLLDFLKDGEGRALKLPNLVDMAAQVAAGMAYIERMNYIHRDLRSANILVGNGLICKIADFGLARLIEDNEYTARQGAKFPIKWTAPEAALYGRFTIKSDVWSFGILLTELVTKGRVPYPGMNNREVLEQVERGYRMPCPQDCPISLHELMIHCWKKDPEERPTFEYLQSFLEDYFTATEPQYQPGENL
Experiment [12] concerns the target Ribosomal protein S6 kinase alpha-5 (Homo sapiens) (UniProt O75582). Put plainly: Inhibition of MSK1 (unknown origin) at 30 uM by microfluidic assay relative to control.
For experiment [13], the target named is Hepatocyte growth factor receptor (Homo sapiens) (UniProt P08581). The experiment in a line: Inhibition of MET (unknown origin) at 30 uM by microfluidic assay relative to control.
Experiment [14] deals with Mitogen-activated protein kinase 14 (Homo sapiens) (UniProt Q16539). Put plainly: Inhibition of p38a (unknown origin) at 30 uM by microfluidic assay relative to control.
Mitogen-activated protein kinase 14 (Homo sapiens), sequence (Q16539 whole entry): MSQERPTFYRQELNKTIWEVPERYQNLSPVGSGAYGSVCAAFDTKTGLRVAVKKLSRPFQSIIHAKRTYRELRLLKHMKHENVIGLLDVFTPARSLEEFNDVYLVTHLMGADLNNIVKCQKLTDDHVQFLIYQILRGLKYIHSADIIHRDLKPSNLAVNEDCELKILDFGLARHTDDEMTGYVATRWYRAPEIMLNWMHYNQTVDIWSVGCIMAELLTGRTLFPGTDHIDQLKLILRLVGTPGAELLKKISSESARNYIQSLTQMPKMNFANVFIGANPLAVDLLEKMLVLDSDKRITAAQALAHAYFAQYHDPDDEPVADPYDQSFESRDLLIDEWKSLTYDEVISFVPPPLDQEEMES
For experiment [15], the species on record is Homo sapiens. Put plainly: Selectivity index, ratio of IC50 for VEGFR-2 (unknown origin) to IC50 for CHK1 (unknown origin).
Experiment [16] is filed under the species Homo sapiens. The experiment in a line: Selectivity index, ratio of IC50 for EGFR (unknown origin) to IC50 for CHK1 (unknown origin).
In experiment [17] the target is Epidermal growth factor receptor (Homo sapiens, UniProt P00533). Put plainly: Inhibition of EGFR (unknown origin) by microfluidic assay relative to control.

Serine/threonine-protein kinase Chk2 (Homo sapiens), sequence (O96017 whole entry): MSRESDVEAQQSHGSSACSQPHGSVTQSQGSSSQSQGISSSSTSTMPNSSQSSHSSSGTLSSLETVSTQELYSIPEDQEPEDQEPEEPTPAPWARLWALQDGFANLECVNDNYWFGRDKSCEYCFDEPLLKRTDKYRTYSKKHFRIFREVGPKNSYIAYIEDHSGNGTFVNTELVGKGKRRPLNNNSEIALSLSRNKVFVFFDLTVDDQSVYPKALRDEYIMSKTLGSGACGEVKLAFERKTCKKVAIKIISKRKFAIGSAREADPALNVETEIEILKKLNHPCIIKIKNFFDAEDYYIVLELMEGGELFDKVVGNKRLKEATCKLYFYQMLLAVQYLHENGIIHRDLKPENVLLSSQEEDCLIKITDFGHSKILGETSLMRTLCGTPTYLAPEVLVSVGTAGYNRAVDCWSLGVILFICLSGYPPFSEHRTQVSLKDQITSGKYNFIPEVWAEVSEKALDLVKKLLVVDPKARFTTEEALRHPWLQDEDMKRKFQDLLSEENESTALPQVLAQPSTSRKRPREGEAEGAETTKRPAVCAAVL
RAC-beta serine/threonine-protein kinase (Homo sapiens), sequence (P31751 whole entry): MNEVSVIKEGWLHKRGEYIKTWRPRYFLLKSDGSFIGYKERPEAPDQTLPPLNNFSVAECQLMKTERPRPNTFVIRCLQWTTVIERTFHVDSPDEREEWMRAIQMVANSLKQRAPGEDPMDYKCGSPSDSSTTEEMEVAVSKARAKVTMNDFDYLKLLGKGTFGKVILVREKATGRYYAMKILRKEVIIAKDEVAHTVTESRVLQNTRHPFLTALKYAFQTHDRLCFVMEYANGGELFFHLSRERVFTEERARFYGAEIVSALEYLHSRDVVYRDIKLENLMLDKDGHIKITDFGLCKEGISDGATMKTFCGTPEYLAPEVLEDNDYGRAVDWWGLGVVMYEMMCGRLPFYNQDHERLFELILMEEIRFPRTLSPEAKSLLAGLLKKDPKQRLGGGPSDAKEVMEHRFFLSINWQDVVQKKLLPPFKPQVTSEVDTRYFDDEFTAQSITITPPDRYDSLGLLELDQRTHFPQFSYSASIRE
Vascular endothelial growth factor receptor 2, sequence (P35968 whole entry): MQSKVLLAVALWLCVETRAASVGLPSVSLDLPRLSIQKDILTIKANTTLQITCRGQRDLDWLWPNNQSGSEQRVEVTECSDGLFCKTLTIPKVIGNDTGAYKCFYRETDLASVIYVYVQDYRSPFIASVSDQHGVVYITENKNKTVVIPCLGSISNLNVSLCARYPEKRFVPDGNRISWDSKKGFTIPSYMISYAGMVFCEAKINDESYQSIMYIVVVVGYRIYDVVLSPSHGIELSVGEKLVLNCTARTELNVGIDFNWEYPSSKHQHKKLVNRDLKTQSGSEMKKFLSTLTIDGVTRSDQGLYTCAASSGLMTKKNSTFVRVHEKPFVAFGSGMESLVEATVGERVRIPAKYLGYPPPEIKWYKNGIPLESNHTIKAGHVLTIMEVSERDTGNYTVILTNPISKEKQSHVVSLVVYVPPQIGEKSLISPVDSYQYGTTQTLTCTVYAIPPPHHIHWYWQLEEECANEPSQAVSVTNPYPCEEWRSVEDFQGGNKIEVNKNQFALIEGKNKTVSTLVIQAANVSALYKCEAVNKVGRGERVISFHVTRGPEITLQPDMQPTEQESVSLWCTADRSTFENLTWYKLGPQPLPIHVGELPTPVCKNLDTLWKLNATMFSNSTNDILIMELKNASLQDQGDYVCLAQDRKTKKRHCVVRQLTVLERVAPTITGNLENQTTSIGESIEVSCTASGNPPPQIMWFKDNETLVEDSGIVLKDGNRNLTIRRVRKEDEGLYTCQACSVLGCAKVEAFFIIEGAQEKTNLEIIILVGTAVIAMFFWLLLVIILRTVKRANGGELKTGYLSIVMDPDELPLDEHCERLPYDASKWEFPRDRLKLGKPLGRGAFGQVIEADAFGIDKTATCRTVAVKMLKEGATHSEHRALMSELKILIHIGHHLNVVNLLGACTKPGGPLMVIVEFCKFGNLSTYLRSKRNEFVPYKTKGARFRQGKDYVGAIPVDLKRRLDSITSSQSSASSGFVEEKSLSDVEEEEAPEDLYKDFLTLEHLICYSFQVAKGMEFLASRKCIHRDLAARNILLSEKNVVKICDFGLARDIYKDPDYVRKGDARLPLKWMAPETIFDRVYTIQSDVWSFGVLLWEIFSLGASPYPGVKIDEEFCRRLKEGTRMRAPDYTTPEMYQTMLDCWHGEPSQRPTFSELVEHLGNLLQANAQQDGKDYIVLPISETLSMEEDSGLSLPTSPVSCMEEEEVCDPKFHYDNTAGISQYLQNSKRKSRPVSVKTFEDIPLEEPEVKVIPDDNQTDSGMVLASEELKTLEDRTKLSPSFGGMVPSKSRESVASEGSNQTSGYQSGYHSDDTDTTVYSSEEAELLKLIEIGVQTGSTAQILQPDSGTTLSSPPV
Casein kinase I isoform delta (Homo sapiens), sequence (P48730 whole entry, looked up, canonical isoform): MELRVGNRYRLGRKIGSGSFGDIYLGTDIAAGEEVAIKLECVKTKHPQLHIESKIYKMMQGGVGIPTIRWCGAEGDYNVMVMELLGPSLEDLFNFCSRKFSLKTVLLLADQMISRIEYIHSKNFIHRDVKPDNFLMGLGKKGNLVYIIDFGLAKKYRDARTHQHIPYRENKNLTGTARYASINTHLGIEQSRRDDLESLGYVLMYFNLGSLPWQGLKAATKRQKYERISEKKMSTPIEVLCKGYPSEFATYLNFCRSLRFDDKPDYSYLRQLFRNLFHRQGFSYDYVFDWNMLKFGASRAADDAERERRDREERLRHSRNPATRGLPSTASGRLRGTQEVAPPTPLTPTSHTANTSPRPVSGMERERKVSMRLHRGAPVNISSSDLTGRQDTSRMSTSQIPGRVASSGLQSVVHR

As to `Cc1[nH]c(-c2ccccc2)c(-c2ccccc2)c1C(=O)c1cn(-c2ccccc2)nc1C(=O)Nc1ccccc1`, the inhibition turned out to be 25% in experiment [1]; 4% in experiment [2]; 33% in experiment [3]; 23% in [4]; 33% in experiment [5]; 43% in experiment [6]. Besides, the inhibition in experiment [7] came out at 80%; in experiment [8] it was 86%; in experiment [9], 26%; in experiment [10] it was 100%; in [11], 21%; in experiment [12], 87%. For the same compound, the inhibition turned out to be 3% in experiment [13] and 13% in experiment [14].

In the case of `Cc1[nH]c(-c2ccccc2)c(-c2ccccc2)c1-c1nnc(O)c2nn(-c3ccccc3)cc12`, the inhibition was determined as 32% in experiment [1]; 24% in [2]; 12% in experiment [3]; 43% in experiment [4]; 23% in experiment [5]; 53% in [6]. In addition, the inhibition came out at 84% in [7]; 56% in [8]; 19% in [9]; 100% in experiment [10]; 12% in experiment [11]; 34% in experiment [12]. In addition, the inhibition in experiment [13] amounted to 4%; in experiment [14], 2%.

In the case of `Cc1[nH]c(-c2ccccc2)c(-c2ccccc2)c1C(=O)c1coc2c1cc(O)c1ccccc12`, the inhibition in experiment [1] worked out at 32%; in [2], 55%; in [3], 32%; in experiment [4] it was 2%; in experiment [5] it was 21%; in experiment [6], 22%. Moreover, the inhibition in experiment [7] amounted to 96%; in experiment [8], 56%; in experiment [9], 76%; in [10] it was 100%; in [11], 21%; in experiment [12], 34%. Also, the figures for the inhibition in experiment [13] and in [14] were 34% and 21%, respectively. The results for the Ratio IC50 in the experiment filed under Homo sapiens [15] and in the experiment listed under Homo sapiens [16] were 14.7 and 16.4, respectively. This compound displayed an IC50 in [17] of 5.1 µM.
